Test results: US20230270772A1, “USE OF 5'-METHYLTHIOADENOSINE IN PREPARATION OF OBESITY-SUPPRESSING DRUGS OR HEALTH CARE PRODUCTS” (Zhejiang Chinese Medical University, priority 2022, published 2023)

Legend:
[1] = system: high-fat diet-induced obesity in C57BL/6 mice; experiment: Suppression of high-fat diet-induced obesity, gavage for 11 weeks; assay type: in vivo; settings: 50 and 100 mg/kg/day by gavage
Procedure: (§1) Eight-week-old C57BL/6 mice were divided into three groups (a control group, a model group, and a drug-treated group). The mice of control group were fed with a low-fat diet, the mice of model group were fed with a high-fat diet, and the mice of drug-treated group were fed with high-fat diet+5′-methylthioadenosine (50 and 100 mg/kg/day) by gavage for 11 weeks, during which the body weight of the mice was recorded, and OGTT and ITT thereof were conducted.

[2] = system: high-fat diet-induced obesity in C57BL/6 mice; experiment: Suppression of high-fat diet-induced obesity, gavage for 9 weeks; assay type: in vivo; settings: 100 mg/kg/day by gavage
Procedure: as §1, with “group) (FIG. 4A).” for “group).”, “diet, and” for “diet,”, “diet ad libitum. The” for “diet, and the”, “(100” for “(50 and 100”, “9” for “11”

HepG2 hepatoma cells = experiment: Suppression of uric acid-induced lipogenesis in HepG2 hepatoma cells (oil red staining); assay type: cell-based; settings: uric acid 120 μg/mL + 0.05, 0.1, 0.5, 1.0 and 5.0 μg/mL for 24 h, FIG. 3
Procedure: HepG2 hepatoma cells were induced to synthesize fat by uric acid (120 μg/mL). After 24 h, the cells were divided into two groups for testing. The cells of model group continued to be induced with uric acid (120 μg/mL) for 24 h.

[3] = system: high-fat diet-induced obesity in C57/BL mice; experiment: Comparison of MTA and adenosine in suppressing high-fat diet-induced obesity; assay type: in vivo; settings: 8-week-old C57BL/6 mice, tube-feeding 100 mg/kg/day, FIG. 2A-2D
Source text: Experimental animals: 8-week-old C57BL/6 mice; Diets and drugs: low-fat diet (10% kcal as fat, product #D12450J, Research Diets), high-fat diet (60% kcal as fat, product #D12492, Research Diets), MTA, and adenosine.

SMILES | high-fat diet-induced obesity (body weight) ([1]; FIG. 5A, 5B) | oral glucose tolerance and insulin tolerance (OGTT, ITT) ([1]; FIG. 5G-5J) | liver lipogenesis and gains of subcutaneous and visceral fats (perirenal, testicular) ([1]; after sacrifice, FIG. 5C-5F) | high-fat diet-induced obesity (body weight) ([2]; FIG. 4B) | oral glucose tolerance and insulin tolerance (OGTT, ITT) ([2]; FIG. 4H, 4I) | liver lipogenesis and gains of subcutaneous and visceral fats ([2]; after sacrifice, FIG. 4C-4G) | uric acid-induced lipogenesis (amount of synthetic fat, oil red staining) (HepG2 hepatoma cells) | obesity-suppressing effect (body weight, liver weight, subcutaneous and visceral fat weight) [3]
CSC[C@H]1O[C@@H](n2cnc3c(N)ncnc32)[C@H](O)[C@@H]1O [5′-methylthioadenosine, 5′-Methylthioadenosine] | significantly suppressing high-fat diet-induced obesity, with a concentration gradient effect | improving oral glucose tolerance and insulin tolerance in mice | suppressing the liver lipogenesis and the gains of subcutaneous fats and visceral fats, with a concentration gradient effect | significantly suppressing high-fat diet-induced obesity | improving oral glucose tolerance and insulin tolerance in mice | suppressing the liver lipogenesis and the gains of subcutaneous fats and visceral fats | significantly inhibiting uric acid-induced lipogenesis in HepG2 cells with a concentration gradient effect | significantly better than that of adenosine
Nc1ncnc2c1ncn2[C@@H]1O[C@H](CO)[C@@H](O)[C@H]1O [adenosine] |  |  |  |  |  |  |  | shown to inhibit the body weight and liver weight gains and fat accumulation in mice
